Laboratory results published in US10359701B2, “Material for forming underlayer film for lithography, composition for forming underlayer film for lithography, underlayer film for lithography and pattern forming method” (Mitsubishi Gas Chemical Company, Inc., priority 2015, dated 2019).

Legend:
[1] = Solubility: amount of compound dissolved in PGMEA at 23° C.
Procedure: The amount of the compound dissolved in propylene glycol monomethyl ether acetate (PGMEA) was measured at 23° C., and the results were evaluated according to the following criteria.
Evaluation A: 10% by mass or more
Evaluation B: less than 10% by mass

[2] = Thermogravimetric measurement (TG) of the synthesized compound; format: physicochemical

Compound | solubility in PGMEA [1] | solubility in PGMEA (Evaluation) [1] | 20% thermal weight loss temperature [2]
N#COc1ccc(C(c2ccccc2)c2ccc(OC#N)cc2)cc1 [B-CN, bis(4-cyanatophenyl)phenylmethane] | ≥ 10 % by mass | A (10% by mass or more) | ≥ 400 °C
N#COc1ccc(-c2ccc(OC#N)c(C(c3ccc(-c4ccccc4)cc3)c3cc(-c4ccc(OC#N)cc4)ccc3OC#N)c2)cc1 [BiF-CN, bis(4,4′-cyanatobiphenyl) biphenylmethane] | ≥ 10 % by mass | A (10% by mass or more) | ≥ 400 °C
